Test results taken from paper PMC12680756, “Reflectometric-based sensor arrays for the screening of kinase-inhibitor interactions and kinetic determination” (Analytical and Bioanalytical Chemistry, 2025).

How the values were obtained:
FAK [1] = target: T1, FAK (Homo sapiens, UniProt Q05397); assay: Competitive MST assay, labeled STP-FAK complex titrated with another inhibitor; assay type: binding; conditions: labeled STP (40 µM) in complex with FAK (40 nM)
Description: Microscale thermophoresis was performed with the instrument Monolith NT.115, capillaries and MO.Control Software from Nanotemper Technologies, Munich, Germany. For each experiment, 16 capillaries were filled with a sample solution. […] The fluorescence of a specific area of each capillary was measured prior and during the thermophoresis experiment. For a better comparability, the fluorescence intensity obtained during the measurement was normalized to the fluorescence in each capillary recorded prior to the start of the experiment.

PKA in the protein mix = assay: 1-lambda reflectometry inhibitor screening on spotted sensor array, protein mix; assay type: binding, bovine; conditions: for order of binding affinity by color change of the spots (naked eye): protein mix 50 µg/mL, image after association, Fig. 5a; for increase of the average relative signal: protein mix, sensograms Fig. 5c, immobilized inhibitor spot
Description: (§1) • Manual spotting: the inhibitor dissolved in DMSO (1 mg/mL) was dropped to the measurement region on the transducer by pipetting. The immobilization process was as specified above. • Automatic spotting: the inhibitor dissolved in DMSO (1 mg/mL) was dropped to the measurement region on the transducer via the ceramic pin of the spotter. The droplets were dried under ambient conditions, and the process was repeated twice. After drying the last droplet, the transducer was prepared for measurements or stored at 4°C.
(§2) Screening was performed with 1-lambda reflectometry and transducers on which different inhibitors were spotted in the measurement area. The measurement protocols were the same as for the single assays.
One region per row was set as the reference ROI void of inhibitor.

FAK [2] = target: T1, FAK; assay: 1-lambda reflectometry inhibitor screening on spotted sensor array, FAK; assay type: binding; conditions: sensograms Fig. 5c; for order regarding the strength of the association: FAK as kinase sample
Description: as §1, §2

[3] = target: protein mix containing cAMP-dependent protein kinase (PKA) (Bos taurus, UniProt P00517); assay: 1-lambda reflectometry single assays, protein mix flushed over immobilized inhibitor, kinetic evaluation; conditions: read-out: dissociation rate constant kd

T1 sequence (Q05397 410-689, species assumed): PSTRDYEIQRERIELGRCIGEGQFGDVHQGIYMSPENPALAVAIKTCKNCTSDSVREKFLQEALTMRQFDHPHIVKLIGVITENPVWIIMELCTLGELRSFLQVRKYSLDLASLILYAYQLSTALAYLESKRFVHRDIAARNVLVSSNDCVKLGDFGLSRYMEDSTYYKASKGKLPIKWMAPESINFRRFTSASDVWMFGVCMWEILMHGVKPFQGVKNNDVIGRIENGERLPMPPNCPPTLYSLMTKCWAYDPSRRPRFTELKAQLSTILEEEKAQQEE

`Cl.Cn1cc(C2=C(c3c4n(c5ccccc35)CCC(CN)C4)C(=O)NC2=O)c2ccccc21` (centres unmarked) [BisX, Bisindolylmaleimide X] was tested, and the “shape of dose-response curve in competitive MST” value (FAK [1]) was “the slope was inversed compared to the one of the direct assays”.

`CN[C@@H]1C[C@H]2O[C@@](C)([C@@H]1OC)n1c3ccccc3c3c4c(c5c6ccccc6n2c5c31)C(=O)NC4` [STP, Staurosporine] was tested, and the “order of binding affinity by color change of the spots (naked eye)” value (PKA in the protein mix) was “imatinib > fragment2 > fragment1 > STP”.

For `O=S(=O)(c1cccc2cnccc12)N1CCCNCC1` [fasudil], the “order of binding affinity by color change of the spots (naked eye)” value (PKA in the protein mix) was “strongest color change”, the “increase of the average relative signal” value (PKA in the protein mix) was 1.7% and the “order regarding the strength of the association” value (shortened to “order regarding the strength”) (FAK [2]) was “STP > imatinib > fasudil > fragment2 > fragment1”.

`COc1ccc(-c2cc(N)[nH]n2)cc1Cl` [fragment1] was tested, and the “order of binding affinity by color change of the spots (naked eye)” value (PKA in the protein mix) was “imatinib > fragment2 > fragment1 > STP”, the “order regarding the strength” value (FAK [2]) was “STP > imatinib > fasudil > fragment2 > fragment1” and the koff [3] was 0.007 s⁻¹.

In the case of `Nc1ncnc(Nc2ccc(F)cc2)n1` [fragment2], the “order of binding affinity by color change of the spots (naked eye)” value (PKA in the protein mix) was “imatinib > fragment2 > fragment1 > STP” and the “order regarding the strength” value (FAK [2]) was “STP > imatinib > fasudil > fragment2 > fragment1”.

`Cc1ccc(NC(=O)c2ccc(CN3CCN(C)CC3)cc2)cc1Nc1nccc(-c2cccnc2)n1` [imatinib] was tested, and the “order of binding affinity by color change of the spots (naked eye)” value (PKA in the protein mix) was “imatinib > fragment2 > fragment1 > STP”, the “increase of the average relative signal” value (PKA in the protein mix) was 0.84% and the “order regarding the strength” value (FAK [2]) was “STP > imatinib > fasudil > fragment2 > fragment1”. For the same compound, the “increase of the relative signal” value (FAK [2]; FAK, immobilized inhibitor spot) was 0.13%.
